This is an account of results in patent US9440957B2, “Compounds and compositions for modulating EGFR Activity” (Novartis AG, priority 2012, dated 2016).

Common to all, as to format: cell-based
Experiment [1] concerns the target human EGFR L858R (NIH/3T3 cells) (Homo sapiens, UniProt P00533, L858R). Briefly: EGFR target modulation in engineered NIH/3T3 cell lines (phospho-EGFR Y1068 AlphaLISA), EGFR L858R. As to conditions: engineered NIH/3T3 cells, read-out: NIH3T3 IC50 (μM) EGFR (L858R). The method in brief: (§1)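 Read-out is phospho-Y1068 AlphaLISA on cell lysates, with anti-total EGFR at 1 nM final equilibrated 1 h at room temperature. Cells were dosed 3 h with a 12-point 1:3 series starting from a 10 μM stock. Only the WT line received 50 ng/ml EGF for 5 min.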

In experiment [2] the target is HCC827 (Del E746-A750) (Homo sapiens, UniProt P00533, DEL746-750). Briefly: EGFR target modulation in HCC827 cell line (phospho-EGFR Y1173 ELISA). The essentials: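 3 h compound exposure of cells in 10% FBS/RPMI, 37 °C; lysis on ice 20 min; lysate captured overnight at 4 °C on anti-EGFR-coated plates; anti-rabbit-HRP, chemiluminescence.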
HCC827 (Del E746-A750), sequence (P00533 with tags, fused parts or gaps DEL746-750): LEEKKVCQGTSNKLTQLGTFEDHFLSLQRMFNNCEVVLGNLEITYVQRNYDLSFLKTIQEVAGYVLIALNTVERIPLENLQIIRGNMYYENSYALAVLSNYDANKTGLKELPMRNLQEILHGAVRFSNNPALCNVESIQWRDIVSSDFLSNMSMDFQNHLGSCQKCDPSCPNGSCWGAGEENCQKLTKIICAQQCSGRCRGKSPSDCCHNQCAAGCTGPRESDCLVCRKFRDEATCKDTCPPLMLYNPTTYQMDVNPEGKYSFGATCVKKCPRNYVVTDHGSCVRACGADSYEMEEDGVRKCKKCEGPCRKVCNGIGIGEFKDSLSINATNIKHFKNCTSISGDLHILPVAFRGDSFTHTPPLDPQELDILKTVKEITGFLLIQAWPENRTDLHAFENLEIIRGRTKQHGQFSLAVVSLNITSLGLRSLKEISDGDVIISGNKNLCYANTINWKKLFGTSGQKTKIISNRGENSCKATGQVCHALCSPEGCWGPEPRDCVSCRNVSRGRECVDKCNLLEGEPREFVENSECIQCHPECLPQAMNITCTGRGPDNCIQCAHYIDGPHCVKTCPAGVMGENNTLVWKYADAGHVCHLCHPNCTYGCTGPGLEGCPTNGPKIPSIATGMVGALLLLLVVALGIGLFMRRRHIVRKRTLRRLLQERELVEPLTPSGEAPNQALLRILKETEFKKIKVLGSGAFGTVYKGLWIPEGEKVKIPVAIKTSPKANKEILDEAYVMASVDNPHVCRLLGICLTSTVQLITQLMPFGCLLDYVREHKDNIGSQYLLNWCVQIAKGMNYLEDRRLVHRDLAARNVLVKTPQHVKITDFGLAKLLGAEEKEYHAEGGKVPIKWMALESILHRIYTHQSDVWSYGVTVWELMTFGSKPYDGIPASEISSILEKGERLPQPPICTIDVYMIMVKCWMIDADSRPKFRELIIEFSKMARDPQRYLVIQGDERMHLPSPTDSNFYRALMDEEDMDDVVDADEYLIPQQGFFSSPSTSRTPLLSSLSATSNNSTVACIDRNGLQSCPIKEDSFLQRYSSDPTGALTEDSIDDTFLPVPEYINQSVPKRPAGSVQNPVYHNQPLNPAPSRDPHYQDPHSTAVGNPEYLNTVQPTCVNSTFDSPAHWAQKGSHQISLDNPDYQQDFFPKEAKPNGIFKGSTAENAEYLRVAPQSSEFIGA
Experiment [3] concerns the target HaCaT (EGFR WT) (Homo sapiens, UniProt P00533). In words: EGFR target modulation in HaCaT (EGFR-WT) cell line (phospho-EGFR Y1173 ELISA). As to conditions: value in parentheses. The essentials:
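HaCaT cells were treated with compound for 3 h and stimulated with EGF. Lysates (20 min on ice) were captured overnight at 4 °C on anti-EGFR-coated plates, and phospho-EGFR was detected by HRP chemiluminescence.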
For orientation: ELISA stands for enzyme-linked immunosorbent assay.

For experiment [4], the target named is human EGFR L858R/T790M (NIH/3T3 cells) (Homo sapiens, UniProt P00533, L858R/T790M). Briefly: EGFR target modulation in engineered NIH/3T3 cell lines (phospho-EGFR Y1068 AlphaLISA), EGFR L858R/T790M. As to conditions: engineered NIH/3T3 cells, read-out: NIH3T3 IC50 (μM) EGFR (L858R/T790M). The essentials:
as §1

human EGFR L858R (NIH/3T3 cells), sequence (P00533 25-1210 L858R): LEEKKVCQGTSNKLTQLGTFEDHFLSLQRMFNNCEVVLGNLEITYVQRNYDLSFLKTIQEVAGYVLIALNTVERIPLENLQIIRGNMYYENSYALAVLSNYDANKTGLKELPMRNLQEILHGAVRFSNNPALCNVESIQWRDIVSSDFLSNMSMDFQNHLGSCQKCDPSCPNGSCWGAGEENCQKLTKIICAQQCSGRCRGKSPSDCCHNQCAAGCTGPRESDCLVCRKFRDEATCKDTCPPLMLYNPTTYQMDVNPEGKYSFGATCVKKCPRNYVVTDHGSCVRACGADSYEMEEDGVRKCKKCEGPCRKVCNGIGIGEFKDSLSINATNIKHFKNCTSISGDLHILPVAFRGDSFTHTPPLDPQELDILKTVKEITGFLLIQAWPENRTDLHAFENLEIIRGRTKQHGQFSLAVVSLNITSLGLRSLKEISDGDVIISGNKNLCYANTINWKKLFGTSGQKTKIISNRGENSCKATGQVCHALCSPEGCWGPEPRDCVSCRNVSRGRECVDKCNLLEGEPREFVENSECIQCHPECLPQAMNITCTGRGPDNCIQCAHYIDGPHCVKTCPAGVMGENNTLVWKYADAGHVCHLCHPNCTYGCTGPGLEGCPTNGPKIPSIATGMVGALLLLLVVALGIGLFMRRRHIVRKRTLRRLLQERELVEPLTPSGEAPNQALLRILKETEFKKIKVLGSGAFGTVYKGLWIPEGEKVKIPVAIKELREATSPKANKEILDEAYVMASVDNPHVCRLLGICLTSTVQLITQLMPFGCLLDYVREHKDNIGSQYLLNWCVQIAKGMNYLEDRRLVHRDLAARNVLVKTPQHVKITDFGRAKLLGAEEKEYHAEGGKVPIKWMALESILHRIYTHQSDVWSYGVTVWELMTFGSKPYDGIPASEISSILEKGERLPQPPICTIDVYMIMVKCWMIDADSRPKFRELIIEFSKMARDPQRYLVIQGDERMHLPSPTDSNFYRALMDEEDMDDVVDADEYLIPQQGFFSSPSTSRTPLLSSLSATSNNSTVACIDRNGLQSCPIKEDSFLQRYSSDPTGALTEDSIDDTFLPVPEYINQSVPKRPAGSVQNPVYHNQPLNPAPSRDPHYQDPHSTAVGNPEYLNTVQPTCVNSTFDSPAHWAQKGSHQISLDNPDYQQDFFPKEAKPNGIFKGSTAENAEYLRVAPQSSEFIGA
HaCaT (EGFR WT), sequence (P00533 25-1210): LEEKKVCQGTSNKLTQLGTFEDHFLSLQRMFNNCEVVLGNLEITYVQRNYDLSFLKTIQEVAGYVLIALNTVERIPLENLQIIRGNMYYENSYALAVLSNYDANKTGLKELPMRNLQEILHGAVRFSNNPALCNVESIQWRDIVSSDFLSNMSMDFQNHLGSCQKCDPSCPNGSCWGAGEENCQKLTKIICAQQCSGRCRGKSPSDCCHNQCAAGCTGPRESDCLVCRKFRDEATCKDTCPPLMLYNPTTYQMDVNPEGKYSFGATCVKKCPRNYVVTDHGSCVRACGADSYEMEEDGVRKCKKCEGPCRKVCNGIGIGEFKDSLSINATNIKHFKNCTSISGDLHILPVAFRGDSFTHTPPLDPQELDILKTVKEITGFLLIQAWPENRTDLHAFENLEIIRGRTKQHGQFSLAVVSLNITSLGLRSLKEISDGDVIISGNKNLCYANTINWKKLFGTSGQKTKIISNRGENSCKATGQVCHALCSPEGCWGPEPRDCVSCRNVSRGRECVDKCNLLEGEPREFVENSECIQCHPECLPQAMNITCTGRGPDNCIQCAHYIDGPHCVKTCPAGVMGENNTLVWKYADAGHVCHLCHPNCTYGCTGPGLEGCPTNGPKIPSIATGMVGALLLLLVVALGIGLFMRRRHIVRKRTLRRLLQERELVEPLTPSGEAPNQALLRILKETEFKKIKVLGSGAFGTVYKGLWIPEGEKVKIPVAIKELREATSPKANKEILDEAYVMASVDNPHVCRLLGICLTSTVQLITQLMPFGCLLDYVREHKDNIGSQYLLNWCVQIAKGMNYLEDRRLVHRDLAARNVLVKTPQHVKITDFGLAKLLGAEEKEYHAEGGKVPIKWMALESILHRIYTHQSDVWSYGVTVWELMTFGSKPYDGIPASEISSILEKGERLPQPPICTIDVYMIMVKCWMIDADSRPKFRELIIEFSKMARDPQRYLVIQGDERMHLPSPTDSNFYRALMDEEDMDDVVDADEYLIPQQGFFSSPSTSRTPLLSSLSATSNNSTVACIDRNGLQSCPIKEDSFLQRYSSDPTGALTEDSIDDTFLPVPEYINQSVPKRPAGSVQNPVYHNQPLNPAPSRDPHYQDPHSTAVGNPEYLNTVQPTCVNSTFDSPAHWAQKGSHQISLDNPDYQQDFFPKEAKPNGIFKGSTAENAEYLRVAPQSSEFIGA
human EGFR L858R/T790M (NIH/3T3 cells), sequence (P00533 25-1210 T790M/L858R): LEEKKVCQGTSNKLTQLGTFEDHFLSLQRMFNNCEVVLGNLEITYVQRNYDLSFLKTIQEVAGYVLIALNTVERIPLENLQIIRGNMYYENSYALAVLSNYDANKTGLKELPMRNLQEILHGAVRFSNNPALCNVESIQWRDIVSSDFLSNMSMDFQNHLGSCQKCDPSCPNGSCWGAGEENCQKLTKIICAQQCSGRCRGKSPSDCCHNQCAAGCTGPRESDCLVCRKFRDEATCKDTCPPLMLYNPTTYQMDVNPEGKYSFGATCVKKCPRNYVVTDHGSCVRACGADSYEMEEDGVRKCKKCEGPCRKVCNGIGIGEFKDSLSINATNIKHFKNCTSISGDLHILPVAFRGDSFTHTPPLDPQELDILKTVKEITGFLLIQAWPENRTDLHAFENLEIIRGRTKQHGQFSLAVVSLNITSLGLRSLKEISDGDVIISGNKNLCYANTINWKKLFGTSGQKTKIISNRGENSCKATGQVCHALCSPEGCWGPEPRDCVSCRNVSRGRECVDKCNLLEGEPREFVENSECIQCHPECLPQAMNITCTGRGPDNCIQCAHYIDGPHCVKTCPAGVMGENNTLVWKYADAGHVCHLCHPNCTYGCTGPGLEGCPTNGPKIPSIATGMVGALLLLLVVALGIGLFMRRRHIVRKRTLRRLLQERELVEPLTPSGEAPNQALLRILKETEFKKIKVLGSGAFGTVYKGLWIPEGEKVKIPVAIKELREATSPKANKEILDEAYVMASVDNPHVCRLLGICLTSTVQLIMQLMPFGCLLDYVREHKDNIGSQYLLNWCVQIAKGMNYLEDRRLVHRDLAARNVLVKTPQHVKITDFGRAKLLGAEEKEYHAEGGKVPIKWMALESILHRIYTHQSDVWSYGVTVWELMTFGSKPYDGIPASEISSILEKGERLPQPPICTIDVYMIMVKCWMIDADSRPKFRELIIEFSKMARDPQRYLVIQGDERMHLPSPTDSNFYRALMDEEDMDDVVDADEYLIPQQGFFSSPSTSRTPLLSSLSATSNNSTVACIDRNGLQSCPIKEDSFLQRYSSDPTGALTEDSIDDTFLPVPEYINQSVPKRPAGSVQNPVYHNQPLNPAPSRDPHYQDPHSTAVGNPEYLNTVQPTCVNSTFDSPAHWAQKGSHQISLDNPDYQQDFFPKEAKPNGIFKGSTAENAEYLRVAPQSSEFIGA

For `C=CC(=O)N1CCCC[C@@H](n2c(NC(=O)c3ccnc(C)c3)nc3cc(CN4CC[C@H](F)C4)cc(C)c32)C1` [Example 17-147], the IC50 was below 0.001 µM in experiment [1], below 1 nM in experiment [2], 44 nM in experiment [3] and below 0.001 µM in experiment [4].

Take `C=CC(=O)N1CCCC[C@@H](n2c(NC(=O)c3ccnc(C)c3)nc3cc(CN4CC[C@H](OC)C4)cc(C)c32)C1` [Example 17-149]: the IC50 was below 0.001 µM in experiment [1], below 1 nM in experiment [2], 48 nM in experiment [3] and below 0.001 µM in experiment [4].

`C=CC(=O)N1CCCC[C@@H](n2c(NC(=O)c3ccnc(C)c3)nc3cc(CN4CC(F)C4)cc(C)c32)C1` [Example 17-152]: the IC50 was below 0.001 µM in experiment [1], below 1 nM in experiment [2], 46 nM in experiment [3] and 0.001 µM in experiment [4].

For `C=CC(=O)N1CCCC[C@@H](n2c(NC(=O)c3ccnc(C)c3)nc3cc(CN4CC[C@@H](F)C4)cc(C)c32)C1` [Example 17-148], the IC50 is 0.001 µM in experiment [1], below 1 nM in experiment [2], 52 nM in experiment [3] and 0.002 µM in experiment [4].

For `C=CC(=O)N1CCCC[C@@H](n2c(NC(=O)c3ccnc(C)c3)nc3cc(CN4CC(OC)C4)cc(C)c32)C1` [Example 17-154], the IC50 was below 0.001 µM in experiment [1], below 1 nM in experiment [2], 38 nM in experiment [3] and 0.001 µM in experiment [4].

Regarding `C=CC(=O)N1CCCC[C@@H](n2c(NC(=O)c3ccnc(C)c3)nc3cc(CN4CC[C@@H](OC)C4)cc(C)c32)C1` [Example 17-150], the IC50 in experiment [1] is 0.001 µM; in experiment [2], below 1 nM; in experiment [3] it was 59 nM; in experiment [4], 0.001 µM.
